Data taken from patent publication US20020147210A1, “Methods for delaying recurrence of herpes virus symptoms” (3M Innovative Properties Company, priority 2000, published 2002).

Test system: recurrent herpes genitalis (herpes virus)
Assay: Randomized, double-blind vehicle-controlled clinical study of resiquimod gel formulations topically applied to herpetic lesions of the external genitalia
Type: in vivo, human
Conditions: topical, patients with recurrent herpes genitalis, 6 month observation period
Procedure: Propylene glycol (700 g) and resiquimod (4-amino-2-ethoxymethyl-α,α-dimethyl-1H-imidazo[4,5-c]quinoline-1-ethanol, 1.4 g) were added to a 1000 mL glass beaker. The resulting mixture was heated (about 55° C.) with stirring until all of the resiquimod was dissolved. The resulting solution was added to the mixing bowl of a ROSS LDM-4 mixer. Triacetin (11,968.7 g) was added to the mixing bowl and the resulting mixture was mixed for 10 minutes at 36 rpm. Colloidal silicon dioxide (1,330.0 g, AEROSIL®200 from Degussa, Frankfurt, Germany) was added in five parts. After each addition the resulting mixture was mixed at ambient pressure for 1 to 2 minutes at 36 rpm and then under vacuum (18 inches of Hg below ambient pressure, […]) for about 9 minutes at 36 rpm. The sides of the mixing bowl and the mixing blades were scraped. The formulation was mixed under vacuum (17 inches of Hg below ambient pressure, […]) for about 10 minutes at 36 rpm. The resulting gel contained 0.01% resiquimod, 5.0% propylene glycol, 9.5% colloidal silicon dioxide, and 85.49% triacetin.
Using the method described above, a second formulation was prepared by combining 7.0 g of resiquimod, 700.0 g of propylene glycol, 11963.0 g of triacetin and 1,330.0 g of colloidal silicon dioxide. The resulting gel contained 0.05% resiquimod, 5.0% propylene glycol, 9.5% colloidal silicon dioxide, and 85.45% triacetin.
A randomized, double-blind vehicle (placebo)-controlled study was performed to evaluate single and multi-weekly doses of the resiquimod formulations prepared above topically applied to herpetic lesions on the skin of the external genitalia.
52 otherwise healthy patients (20 to 60 years of age, inclusive) with a history of recurrent herpes genitalis (≧6 episodes per year) participated in the study. […] After passing screening, patients were enrolled into a 12-week eligibility period to qualify for treatment by virtue of experiencing a herpetic recurrence. During the eligibility period patients' qualified for the treatment period by coming to the study site for treatment visit one within 24 hours of a recurrence. At this visit patients were stratified by sex and enrolled sequentially into an active treatment or vehicle treatment regimen.
The treatment period began with the first treatment visit and ended with the final treatment visit. The treatment groups were 0.05 percent resiquimod containing formulation or formulation alone (vehicle) 1×/week for 4 weeks; 0.05 percent resiquimod containing formulation or formulation alone 2×/week for 3 weeks; 0.01 percent resiquimod formulation or formulation alone 2×/week for 3 weeks; or 0.01 percent resiquimod formulation or formulation alone 3×/week for 3 weeks. […]

CCOCc1nc2c(N)nc3ccccc3c2n1CC(C)(C)O [Resiquimod, 4-amino-α,α-dimethyl-2-ethoxymethyl-1H-imidazo[4,5-c]quinoline-1-ethanol] was tested, and the “Median No. Days to Recurrence after treatment cessation” value (from here on “Median No. Days to Recurrence”) (0.01% resiquimod gel, 2×/wk, 3 weeks) was 172.5 days, the “Median No. Days to Recurrence” value (0.01% resiquimod gel, 3×/wk, 3 weeks) was greater than 195 days and the “Median No. Days to Recurrence” value (0.05% resiquimod gel, 1×/wk, 4 weeks) was greater than 60 days. For the same molecule, the “Median No. Days to Recurrence” value (0.05% resiquimod gel, 2×/wk, 3 weeks) was 105 days.
